# No end group written: not given here.
# Test system: rat model of acute myocardial infarction
# Assay: Peptide 1 treatment for 1 day versus 3 days, cardiac function by transthoracic echocardiography in a rat model of acute myocardial infarction
# Assay type: in vivo, male Sprague Dawley rats
# Experimental: Myocardial infarction was induced in male Sprague Dawley rats. On day 0 rats were anaesthetized with a mixture of 2 to 2.2% isoflurane USP (Abbot Laboratories, Montreal Canada) in oxygen, and placed on a heating pad (set at 37° C.) to maintain body temperature. The animals were intubated and immediately ventilated with a mixture of 2 to 2.2% isoflurane USP (Abbot Laboratories, Montreal Canada) in oxygen by means of a positive-pressure rodent respirator (CWE model SAR-830/P) set at ≈10 mL/kg bodyweight at a frequency of 70-80 strokes/min. The pericardium was opened to expose the heart and a 5-0 wax coated braided silk suture (Sofsilk™) was placed around the left anterior descending (LAD) coronary artery, approximately 2-3 mm below the left atrium. The suture was briefly snared to verify the size and location of myocardial ischemia based on colour change and was then tied to produce a large anterolateral myocardial infarction (affecting around 45% of the LV). The suture was kept in place for 30 minutes (30 minutes of ischemia) followed by reperfusion. A group of rats receiving sham procedure was also included. […] Fourteen days after ischemia, cardiac function was assessed by transthoracic echocardiography (echocardiograph model Q9, ChisonMedical Imaging Co. connected to a Chison 12.0 MHz probe).
sequence,measurement,setting,value
AMVSEFLKQAWFIENEEQEYVQTLKSSKGGPGSAVSPYPTFNPSSDV (AMVSEFLKQAWFIENEEQEYVQTLKSSKGGPGSAVSPYPTFNPSSDV-NH2; ends and bridges not checked) [Peptide 1],improvement of cardiac output compared to vehicle treatment,"14 days post ischemia, tail vein, three daily dosages (0, 3, 6 h post reperfusion) for 1 day or 3 days, 10, 30 or 100 ug/kg",20-30%
same,long-term cardiac function,"at least three dosages, echocardiography 14 days after ischemia, vs vehicle",significantly improves long-term cardiac function

# — patent US20260263555A1, “ANNEXIN A1 DELAYED DOSING” (Reso Ther Pharma A/S, priority 2023, published 2026)
